The test system of one experiment is mice in a formalin test. Description: Antalgic effect (II) on mice in a formalin test (comparison with morphine and indomethacin). It is filed as in vivo. To be noted: for average left hind leg-licking time, Mean: formalin 5 minutes later. As for the experimental part:
Antalgic Effect (II) on Mice in a Formalin Test
The typical example of the compound of the present invention (the compound in Example 1) was compared with morphine and indomethacin in the same manner as in Pharmacological Experimental Example 5 above.
20.4 mg of the compound of the present invention was weighed, and 10.2 ml of 5.28% mannitol was added thereto to prepare 2 mg/ml (20 mg/kg) solution. Then, 3.8 ml of 5.28% mannitol was added to 3.8 ml of the 2 mg/ml solution to prepare 1 mg/ml (10 mg/kg) solution. Finally, 2.5 ml of 5.28% mannitol was added to 2.5 ml of the 1 mg/ml solution to prepare 0.5 mg/ml (5 mg/kg) solution. The test compound was weighed and prepared on the day when the experiment was conducted.
b-1) Morphine 17.0 mg of morphine purchased as a reagent was weighed, and 5.67 ml physiological saline was added thereto to form 3 mg/ml (30 mg/kg) solution. Then, 2.6 ml physiological saline was added to 1.3 ml of the 3 mg/ml solution to prepare 1 mg/ml (10 mg/kg) solution. Finally, 2.1 ml physiological saline was added to 0.9 ml of the 1 mg/ml solution to prepare 0.3 mg/ml (3 mg/kg) solution. The test compound was weighed and prepared on the day when the experiment was conducted.
12.9 mg of indomethacin purchased as a reagent was weighed, and 12.9 ml of 0.5% methyl cellulose (MC) was added thereto to form 1 mg/ml (10 mg/kg) suspension. Then, 2.24 ml of 0.5% MC was added to 0.96 ml of the 1 mg/ml suspension to prepare 0.3 mg/ml (3 mg/kg) suspension. Finally, 1.6 ml of 0.5% MC was added to 0.8 ml of the 0.3 mg/ml suspension to prepare 0.1 mg/ml (1 mg/kg) suspension. The test compound was weighed and prepared on the day when the experiment was conducted.
The treatment group by the compound of the present invention consisted of 4 groups in total, that is, a control group, a 5 mg/kg compound administration group, a 10 mg/kg compound administration group, and a 20 mg/kg compound administration group, and each group consisted of 5 animals.
The control group was given 0.1 ml of 5.28% mannitol per 10 g of the body weight via the tail vein. The compound of the present invention was administered via the tail vein at each concentration (0.5 mg/ml, 1 mg/ml, and 2 mg/ml) in an volume of 0.1 ml per 10 g of the body weight into the 5 mg/kg group, 10 mg/kg group and 20 mg/kg group, respectively.
The treatment group by morphine consisted of 4 groups in total, that is, a control group, a 3 mg/kg morphine administration group, a 10 mg/kg morphine administration group, and a 30 mg/kg morphine administration group, and each group consisted of 5 animals.
The control group was orally given 0.1 ml of physiological saline per 10 g of the body weight. Morphine was orally administered at each concentration (0.3 mg/ml, 1 mg/ml, and 3 mg/ml) in a volume of 0.1 ml per 10 g of the body weight into the 3 mg/kg group, 10 mg/kg group and 30 mg/kg group, respectively.
The treatment group by indomethacin consisted of 4 groups in total, that is, a control group, a 1 mg/kg indomethacin administration group, a 3 mg/kg indomethacin administration group, and a 10 mg/kg indomethacin administration group, and each group consisted of 5 animals.
The control group was orally given 0.1 ml of 0.5% MC per 10 g of the body weight. Indomethacin was orally administered at each concentration (0.1 mg/ml, […], and 1 mg/ml) in a volume of 0.1 ml per 10 g of the body weight into the 1 mg/kg group, 3 mg/kg group and 10 mg/kg group, respectively.
5.28% mannitol was administered via the tail vein into each group given the compound of the present invention or into the control group, and the animals were placed in a transparent plastic observation cage. 5 minutes later, 20 μl of 3% formalin was subcutaneously administered into the bottom of the left hind leg of each mouse. The duration of the behavior of mouse's licking the left hind leg after administration of formalin was measured for 5 minutes and used as an indication of pain. The duration was expressed in second. […]

The test system of experiment [1] is rat model with occlusion in the middle cerebral artery. Description: Effect (II) of reducing infarct volume in a rat model with occlusion in the middle cerebral artery (permanent occlusion). It is filed as in vivo. To be noted: for Infarct volume in the cerebral cortex, Mean: from two hours after occlusion, 6 hours, 24 hours after occlusion. The method, then:
Effect (II) of Reducing Infarct volume in a Rat Model with Occlusion in the Middle Cerebral Artery
The typical example of the compound of the present invention (the compound in Example 1) was compared with compounds disclosed in JP 8-508037-A (WO 94/25469, U.S. Pat. No. 5,750,525), which have affinity for AMPA receptors and is effective against cellular necrosis after ischemia in anoxia and hypocalcemia.
The compound of the present invention was dissolved in physiological saline to be adjusted to a dosage of 10 or 20 mg/kg/h just before use.
The control compound was dissolved in physiological saline to be adjusted to a dosage of 3 mg/kg/h just before use.
Occlusion in the middle cerebral artery was conducted according to the method described above. However, the middle cerebral artery was permanently occluded without removing the nylon embolus.
Two hours after the middle cerebral artery was occluded, a syringe containing the medium or the sample (10 or 20 mg/kg/h) was attached to a catheter for intravenous administration, and half (0.31 ml) of the dosage to be infused for 1 hour was intravenously administered for 1 minute. Thereafter, the medium or the sample was administered continuously for 6 hours at a rate of 0.616 ml/h by the use of a syringe pump for infusion. During administration and for 2 hours after administration was finished, the temperature of the rectum was maintained in the range of 37.0 to 38.5° C. in a system for controlling body temperature. After the body temperature control was finished, the animal was returned to a cage and maintained for 1 day in a breeding room.
Two hours after the middle cerebral artery was occluded, a syringe containing the medium or the sample (3 mg/kg/h) was attached to a catheter for intravenous administration, and the medium or the sample was administered continuously for 6 hours at a rate of 0.616 ml/h by means of the syringe pump for infusion. During administration and for 2 hours after administration was finished, the temperature of the rectum was maintained in the range of 37.0 to 38.5° C. in the system for controlling body temperature. After the body temperature control was finished, the animal was returned to a cage and maintained for 1 day in a breeding room.
The middle cerebral artery was permanently occluded by the nylon embolus, and the infarct volume was measured 24 hours after the occlusion was conducted.

Where “and” joins values, the source holds several entries; their conditions need not be identical. Equal values may be shown once.

Turning to `CC(C)C(C#N)(CCCN1CCN(CCOc2ccc(F)cc2)CC1)c1ccccc1` (centres unmarked) [Example 1, 1-[(4-Cyano-5-methyl-4-phenyl)hexyl]-4-[2-(4-fluorophenoxy)ethyl]piperazine], the “average left hind leg-licking time, Mean” value is 49.4 s in the experiment with mice in a formalin test (5 mg/kg i.v. (tail vein)), 23.6 s in the experiment on mice in a formalin test (10 mg/kg i.v. (tail vein)) and 2.2 s in the experiment on mice in a formalin test (20 mg/kg i.v. (tail vein)). The “antalgic effect in the formalin test” value in the experiment on mice in a formalin test (overall conclusion of the comparison) is “excellent effect similar to that of morphine”. Further, the figures for the “degree of reduction of the infarct volume” value in experiment [1] (10 mg/kg/h i.v.) and in experiment [1] (20 mg/kg/h i.v.) were 15% and 30%, respectively. Besides, the “Infarct volume in the cerebral cortex, Mean” value was 260.7±13.1 mm^3 and 260.7 mm^3 in experiment [1] (10 mg/kg/h i.v. (table: 10 mg/kg)); 215.4±21.3 mm^3 and 215.4 mm^3 in experiment [1] (20 mg/kg/h i.v. (table: 20 mg/kg)).
